Assays:
[1] = system: Galium aparine, Abutilon theophrasti, Alopecurus myosuroides, Avena fatua, Ipomoea purpurea, Echinchloa crus-galli, Solanum nigrum and Cyperus iria; test: Pre-emergence effect on weeds (greenhouse pot test, applied to the covering soil); format: in vivo; conditions: application rate of 3 kg or less of active ingredient per hectare, assessed three to four weeks after application vs untreated control
Protocol: Seeds of monocotyledonous and dicotyledonous weeds and/or crops were placed in sandy loam in wood-fibre-pots and covered with soil. The compounds formulated as wettable powders or emulsifiable concentrates were dissolved and diluted with water containing adjuvant and then applied to the surface of the covering soil at different dose rates at an application volume of 600 or 800 litres water per ha. After the treatment, the pots were placed in the greenhouse and kept under good growth conditions for the plants. The herbicidal effect was assessed visually as a percentage figure in comparison with the untreated control three to four weeks after application. 100% Efficacy refers to the complete damage of the assessed plants, 0% efficacy refers to the appearance of the untreated control.

[2] = system: Galium aparine, Abutilon theophrasti, Alopecurus myosuroides, Avena fatua, Ipomoea purpurea, Echinchloa crus-galli, Solanum nigrum and Cyperus iria; test: Post-emergence effect on weeds (greenhouse pot test, applied over the top of plants at one-leaf-stage); format: in vivo; conditions: application rate of 3 kg or less of active ingredient per hectare, treated at one-leaf-stage, assessed three to four weeks after application vs untreated control
Protocol: Seeds of monocotyledonous and dicotyledonous weeds and/or crops were placed in sandy loam in wood-fibre-pots covered with soil and grown under good greenhouse conditions. The plants were treated at the one-leaf-stage two to three weeks after sowing. The compounds, formulated as wettable powders or emulsifiable concentrates were dissolved and diluted with water containing adjuvant and then applied over the top of the plants at different dose rates at an application volume of 600 or 800 litres water per ha. After the treatment, the pots were placed in the greenhouse and kept under good growth conditions for the plants. The herbicidal effect was assessed visually as a percentage figure in comparison with the untreated control three to four weeks after application

SMILES: c1ccc2c(c1)nnc1nncn12 [Compound 3, [1,2,4]triazolo[3,4-c][1,2,4]benzotriazine]
- pre-emergence control of harmful weed species (herbicidal effect assessed visually) [1]: very good pre-emergence control
- post-emergence control of the tested weed species (herbicidal effect assessed visually) [2]: very good post-emergence control
- melting point: 259 to 261 °C

SMILES: [O-][n+]1nc2nncn2c2ccc(Br)cc21 [Compound 5, 7-bromo[1,2,4]triazolo[3,4-c][1,2,4]benzotriazine-5-oxide]
- pre-emergence control of harmful weed species (herbicidal effect assessed visually) [1]: very good pre-emergence control
- post-emergence control of the tested weed species (herbicidal effect assessed visually) [2]: very good post-emergence control

SMILES: c1ccc2c(c1)NNc1nncn1-2 [Compound 6, 4,5-dihydro[[1,2,4]triazolo[3,4-c][1,2,4]benzotriazine]
- pre-emergence control of harmful weed species (herbicidal effect assessed visually) [1]: very good pre-emergence control
- post-emergence control of the tested weed species (herbicidal effect assessed visually) [2]: very good post-emergence control

From US7838672B2, “Use of fused ring-1,2,4-benzotriazine derivatives as herbicides or plant growth regulators for the control of undesired plants or vegetation, compounds and compositions thereof, and processes for their preparation” (Bayer CropScience GmbH, priority 2003, dated 2010)
